Data from the supplement of paper PMC10949913.

Assays:
Conditions in all cases: 48 h
CU-ACC1 [1] = test: AC50 viability; higher = less potent
How it was run: (§1)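 Three adrenocortical carcinoma cell lines were plated in 1,536-well plates at 500–1,000 cells/well in 5 µL medium, and 23 nL of each library compound was added at 11 concentrations. After 48 h, CellTiter-Glo was applied for 15 minutes at room temperature before luminescence was read. Each plate's signals were normalised to vehicle and empty-well controls. AC50 and area under the curve were taken from fitted concentration-response curves, with only inhibitory or non-responding curve classes retained.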

CU-ACC2 [2] = test: AC50 viability; higher = less potent
How it was run: as §1

NCI-H295R [3] = test: AC50 viability; higher = less potent
How it was run: as §1

CU-ACC1 [4] = test: area under concentration-response curve (viability) (AUC (a.u.)); higher = less active
How it was run: as §1

CU-ACC2 [5] = test: as above
How it was run: as §1

NCI-H295R [6] = test: as above
How it was run: as §1

| Structure (SMILES) | AC50 viability (CU-ACC1 [1]) | AC50 viability (CU-ACC2 [2]) | AC50 viability (NCI-H295R [3]) | area under concentration-response curve (CU-ACC1 [4]) | area under concentration-response curve (CU-ACC2 [5]) | area under concentration-response curve (NCI-H295R [6]) |
| --- | --- | --- | --- | --- | --- | --- |
| CC[C@@H]1C(=O)N(C)c2cnc(Nc3ccc(C(=O)NC4CCC(N5CCN(CC6CC6)CC5)CC4)cc3OC)nc2N1C(C)C (stereo partly specified) | 7.42 µM | 9.34 µM | 7.42 µM | 472 | 450 | 429 |
| Cc1ccc([S+](=O)([O-])Nc2cc(Cl)ccc2C(=O)Nc2nc(-c3ccccc3)cs2)cc1 | 9.34 µM | 0.263 µM | 2.63 µM | 362 | 306 | 340 |
| O=C(Nc1ncc(SCCN2CCCC2)s1)[C@]1(c2ccc([S+](=O)([O-])C3CC3)cc2)C[C@H]1C1CCCCC1 | 13.2 µM | 26.3 µM | 10.5 µM | 442 | 507 | 437 |
| CC(C)N1N/C(=C2\C=c3cc(O)ccc3=N2)c2c(N)ncnc21 | 1.66 µM | 2.63 µM | 2.09 µM | 401 | 520 | 472 |
| CC(C)[C@@H](N(CCCN)C(=O)C1=CC=C(C)C=C1)C/2=N/C3=CC(=CC=C3C(=O)N2CC4=CC=CC=C4)Cl | 20.9 µM | 26.3 µM | 5.9 µM | 440 | 567 | 410 |
| c1ccc(-c2ccc(CNc3nc(-c4ccccn4)nnc3-c3ccccc3)cc2)cc1 | 2.35 µM | 14.8 µM | 4.17 µM | 385 | 504 | 461 |
| COc1cccc2c(NCc3ccccc3)nc(-n3c(N)nc4ccccc43)nc12 | 3.32 µM | 3.72 µM | 3.32 µM | 373 | 450 | 402 |
| CC(C)[C@]12O[C@H]1[C@@H]3O[C@@]34[C@@]5(C)CC\C6=C(COC6=O)/[C@@H]5C[C@@H]7O[C@]47[C@@H]2O | 0.0525 µM | 0.059 µM | 0.295 µM | 251 | 242 | 274 |
| COc1cc(C(=O)NC2CCN(C)CC2)c(F)cc1Nc1ncc2c(n1)N(C1CCCC1)CC(F)(F)C(=O)N2C | 16.6 µM | 14.8 µM | 4.68 µM | 412 | 393 | 400 |
| C/C=C1\NC(=O)[C@H]2CSSCC/C=C\[C@H](CC(=O)N[C@H](C(C)C)C(=O)N2)OC(=O)[C@H](C(C)C)NC1=O | 0.00742 µM | 0.0235 µM | 0.118 µM | 235 | 224 | 293 |
| COc1cc(F)ccc1-c1ncnc(Nc2cccc(C[S+](C)(=N)[O-])c2)n1 (stereo unspecified) | 1.86 µM | 0.934 µM | 4.17 µM | 388 | 380 | 428 |
| C=CC(=O)Nc1cc2c(Nc3ccc(F)c(Cl)c3)ncnc2cc1OCCCN1CCOCC1 | 11.8 µM | 8.33 µM | 14.8 µM | 443 | 498 | 427 |
| CN(C)C/C=C/C(=O)Nc1cc2c(Nc3ccc(F)c(Cl)c3)ncnc2cc1O[C@H]1CCOC1 | 4.68 µM | 0.661 µM | 1.32 µM | 231 | 238 | 232 |
| c1ccc(CNc2nc(NCc3ccccc3)c3ccccc3n2)cc1 | 7.42 µM | 9.34 µM | 7.42 µM | 366 | 467 | 386 |
| CN[C@H]1CC[C@@H](c2ccc(Cl)c(Cl)c2)c2ccccc21 | 10.5 µM | 16.6 µM | 11.8 µM | 386 | 438 | 394 |
| COc1cc2c(Nc3ccc(Cl)c(Cl)c3F)ncnc2cc1OC[C@@H]1C[C@@H]2CN(C)C[C@@H]2C1 | 9.34 µM | 13.2 µM | 14.8 µM | 407 | 449 | 430 |
| CC(C)(C)c1cnc(CSc2cnc(NC(=O)C3CCNCC3)s2)o1 | 2.63 µM | 1.48 µM | 7.42 µM | 386 | 352 | 387 |
| CNC(=O)c1ccccc1Nc1nc(Nc2ccc(N3CCOCC3)cc2OC)ncc1Cl | 16.6 µM | 4.17 µM | 0.525 µM | 435 | 483 | 452 |
| CC(N[C@H]1CCCC[C@@H]1NC(=O)c1ccc(Cl)cc1)c1cccc2ccccc12 (stereo partly specified) | 33.2 µM | 23.5 µM | 18.6 µM | 432 | 550 | 422 |
| CCN(CC)CCNC(=O)c1ccc2nc(-c3ccccc3)c(-c3ccc(CN4CCC(n5c(=O)[nH]c6ccccc65)CC4)cc3)nc2c1 | 9.34 µM | 7.42 µM | 9.34 µM | 444 | 479 | 440 |
| NC(=O)/C(=C/n1cnc(-c2cc(C(F)(F)F)cc(C(F)(F)F)c2)n1)c1cncnc1 | 11.8 µM | 5.9 µM | 9.34 µM | 322 | 459 | 438 |

| Structure (SMILES) | AC50 viability (CU-ACC1 [1]) | AC50 viability (CU-ACC2 [2]) | AC50 viability (NCI-H295R [3]) | area under concentration-response curve (CU-ACC1 [4]) | area under concentration-response curve (CU-ACC2 [5]) | area under concentration-response curve (NCI-H295R [6]) |
| --- | --- | --- | --- | --- | --- | --- |
| NC1(Cc2ccc(Cl)cc2)CCN(c2ncnc3[nH]ccc23)CC1 | 16.6 µM | 18.6 µM | 14.8 µM | 444 | 540 | 461 |
| COC1=CC=C(C(=C1)OC(C)C)C/2=N/[C@@H]([C@@H](N2C(=O)N3CCNC(=O)C3)C4=CC=C(Cl)C=C4)C5=CC=C(Cl)C=C5 | 11.8 µM | 14.8 µM | 10.5 µM | 290 | 291 | 288 |
| CCN1CCN(Cc2ccc(-c3cc4c(N[C@H](C)c5ccccc5)ncnc4[nH]3)cc2)CC1 | 23.5 µM | 23.5 µM | 18.6 µM | 452 | 534 | 492 |
| C[C@@H]1CN[C@H]2[C@@H](C)[C@@]3(CC[C@H]4[C@@H]5CC[C@@H]6C[C@@H](CC[C@]6(C)[C@H]5C\C4=C(C)\C3)N[S+](C)([O-])=O)O[C@@H]2C1 | 16.6 µM | 20.9 µM | 14.8 µM | 467 | 539 | 504 |
| C[C@@]12OC(=O)[C@@]1(NC(=O)[C@@H]2CCCl)[C@@H](O)[C@H]\3CCC\C=C3 | 0.833 µM | 1.05 µM | 0.833 µM | 305 | 437 | 435 |
| OCCNC1CCCc2c1[nH]c1ccc(-c3ccccc3)cc21 (stereo unspecified) | 20.9 µM | 23.5 µM | 10.5 µM | 462 | 526 | 456 |
| O=C1NCCc2[nH]c(-c3ccncc3)cc21 | 3.32 µM | 1.86 µM | 4.68 µM | 338 | 406 | 423 |
| COc1cc(OCc2cccc(-c3ccccc3)c2C)cc(OC)c1CN1CCCC[C@H]1C(=O)O | 16.6 µM | 20.9 µM | 18.6 µM | 444 | 546 | 514 |
| C[C@@H](NCc1cc2ccccc2[nH]1)c1cccc2ccccc12 | 20.9 µM | 20.9 µM | 23.5 µM | 428 | 479 | 428 |
| CCNCCc1ccc(CN(CC)c2cc(OC)ccc2[C@@H]2CCc3cc(O)ccc3C2)cc1 | 9.34 µM | 7.42 µM | 7.42 µM | 447 | 515 | 440 |
| CC(C)(O)CNc1ncc(-c2ccnc(Nc3ccncc3)n2)c(CC2CC2)n1 | 10.5 µM | 20.9 µM | 18.6 µM | 442 | 485 | 487 |
| CCCCc1nc2cc(/C=C/C(=O)NO)ccc2n1CCN(CC)CC | 1.66 µM | 5.9 µM | 1.48 µM | 416 | 405 | 453 |
| CC[C@H]1CN2CCc3cc(OC)c(OC)cc3[C@@H]2C[C@@H]1C[C@H]1NCCc2cc(OC)c(OC)cc21 | 0.59 µM | 0.934 µM | 1.66 µM | 366 | 463 | 412 |
| C=CC(=O)Nc1ccc2ncnc(Nc3cccc(Br)c3)c2c1 | 13.2 µM | 14.8 µM | 0.372 µM | 360 | 375 | 409 |
| Cc1cc(Nc2cc(N3CCN(C)CC3)nc(/C=C/c3ccccc3)n2)n[nH]1 | 11.8 µM | 13.2 µM | 6.61 µM | 401 | 369 | 414 |
| COc1cc(N[S+](C)(=O)[O-])ccc1Nc1c2ccccc2nc2ccccc12 | 13.2 µM | 7.42 µM | 13.2 µM | 299 | 409 | 420 |
| Nc1ncccc1-c1nc2ccc(-c3ccccc3)nc2n1-c1ccc(C2(N)CCC2)cc1 | 8.33 µM | 16.6 µM | 5.9 µM | 354 | 437 | 408 |
| CC1(C)CC(=O)c2c(C(F)(F)F)nn(-c3ccc(C(N)=O)c(NC4CCC(OC(=O)CN)CC4)c3)c2C1 (stereo unspecified) | 1.05 µM | 0.417 µM | 1.05 µM | 362 | 426 | 431 |
| COc1cc2c(Nc3ccc(Br)cc3F)ncnc2cc1OCC1CCN(C)CC1 | 14.8 µM | 16.6 µM | 16.6 µM | 401 | 418 | 403 |
| Cc1cc(OCCCc2c3n(c4c(-c5c(C)nn(C)c5C)c(Cl)ccc24)[C@H](C)CN(c2cn(C)c4ccc(C(=O)O)cc24)C3=O)cc(C)c1Cl | 16.6 µM | 16.6 µM | 2.95 µM | 367 | 570 | 445 |
